Reference: publication PMC7898648, “Synthesis and Evaluation of Non‐Hydrolyzable Phospho‐Lysine Peptide Mimics” (Chemistry (Weinheim an Der Bergstrasse, Germany), 2020)

Assays:
[1] = NMR titration for pKa determination of model peptides; format: physicochemical; conditions: 1 mM peptide in 40 mM KCl (H2O + 10 % D2O); for pKa2 (from 31P chemical shift vs pH, inflection point of sigmoidal fit): pH 2 to 11, 278 K, 600 MHz, 8a/8b: mono-protonated phosphoryl oxygen to di-anion, 8c: complete deprotonation of the phosphoryl oxygens
Procedure: Next, we aimed to evaluate the charge distribution of peptides 8 a–c at physiological pH. […] An elegant technique for the pK a determination is NMR titration since this non‐invasive analytical technique enables accurate measurements at desired temperatures at a given pH. Our experimental set up was inspired by the NMR titration conducted by Gamcsik et al. on phosphoramidic acid and other phosphoramides. ^[23] Samples were prepared at a 1 mM concentration in 40 mM KCl (water + 10 % deuterium oxide) and kept at low temperature to minimize P−N bond hydrolysis for 8 c. The pH of each sample was adjusted before measurement and checked again afterwards. Proton (^1H), phosphorous (^31P) 1D as well as ^1H‐^31P‐heteronuclear multiple bond […] (HMBC) NMR spectra were recorded from pH 2 to pH 11 on a 600 MHz (^1H frequency) spectrometer at 278 K and subsequently used for calculations of pK a values (Figure 2 A, exemplified for 8 a, see Figure S3 for 8 b). In order to do so, the chemical shift of ^31P was plotted against the pH values and resulting curves fitted with sigmoidal functions wherein pK a values were obtained from the inflection points (Figure 2 B). We further evaluated the data by plotting and fitting of the ^1H chemical shifts – ζ‐protons for phosphonate 8 a and ϵ‐protons for phosphate 8 b and phosphoramidate 8 c (Figure S4).
Figure 2 A. NMR titration experiments of peptide 8 a. Conditions: NMR spectra of a solution containing 1 mM peptide in 40 mM KCl (H2O+10 % D2O) were recorded at distinct pH values on a 600 MHz (^1H frequency) spectrometer at 278 K. Shown are the overlay of 1D‐^31P spectra at different pH values and extracted correlation signals between ϵ‐protons and phosphorous from ^1H,^31P‐HMBC experiments. B. Graphical visualization of ^31P NMR measurements for phosphonate 8 a (red), phosphate 8 b (blue) and phosphoramidate 8 c (black).

[2] = biological target: T1, alkaline phosphatase (ALP) (Bos taurus, UniProt P19111); assay: Enzymatic stability against alkaline phosphatase (released inorganic phosphate, EnzCheck kit); format: in vitro ADME; conditions: 1 mM substrate, 50 mM Tris, 1 mM MgCl2, 1 mM ZnCl2, pH 8.2, 30 °C, 0.05 U ALP, 2 h; photometric read-out of released Pi at 360 nm (SI: 100 μM, pH 7.8, 90 min); blank without enzyme subtracted
T1 construct: purchased Sigma-Aldrich (aliquots provided by Prof. Fiedler)
Procedure: With the three peptides 8 a–c in hand, we tested their enzymatic stability against the promiscuous alkaline phosphatase (ALP). The substrates 8 a–c were tested for stability towards ALP under optimized conditions. Briefly, 1 mM substrate was dissolved in 50 mM Tris, 1 mM MgCl2, 1 mM ZnCl2, pH 8.2, at 30 °C and was incubated with 0.05 U ALP for 2 h. and the amount of released inorganic phosphate (Pi) was determined via photometric read‐out. […] Furthermore, treatment of 8 b with ALP yielded in a Pi release, which indicated susceptibility of the phosphate analogue towards phosphatases.
Treatment of peptides 8a-c with alkaline phosphatase (ALP). […]
enzymatically hydrolyzed substrate, calculated by subtraction of detected inorganic phosphate (Pi) in blank reactions (without enzyme) from the reactions with enzyme ad de d . He r e i n , w e observed dephosphorylation for both peptides 8b and 8c, which indicated susceptibility of the phosphate analogue towards phosphatases. […]
Reactions were run for 90 min in total, UV -absorbance was measured every 10 min. The enzymatic hydrolysis yield [E] was determined by substraction of [BG]w/oBL from […]
UV/Vis spectra and absorbance values were determined either on a V -630 spectrophotometer at r.t. or a V-550 UV/Vis spectrophotometer equipped with an ETC-505T temperature controller at 20 °C (both Jasco, Tokyo, Japan). […]

[3] = potentiometrically detected; cited from earlier work

T1 sequence (P19111 20-506 limits assumed): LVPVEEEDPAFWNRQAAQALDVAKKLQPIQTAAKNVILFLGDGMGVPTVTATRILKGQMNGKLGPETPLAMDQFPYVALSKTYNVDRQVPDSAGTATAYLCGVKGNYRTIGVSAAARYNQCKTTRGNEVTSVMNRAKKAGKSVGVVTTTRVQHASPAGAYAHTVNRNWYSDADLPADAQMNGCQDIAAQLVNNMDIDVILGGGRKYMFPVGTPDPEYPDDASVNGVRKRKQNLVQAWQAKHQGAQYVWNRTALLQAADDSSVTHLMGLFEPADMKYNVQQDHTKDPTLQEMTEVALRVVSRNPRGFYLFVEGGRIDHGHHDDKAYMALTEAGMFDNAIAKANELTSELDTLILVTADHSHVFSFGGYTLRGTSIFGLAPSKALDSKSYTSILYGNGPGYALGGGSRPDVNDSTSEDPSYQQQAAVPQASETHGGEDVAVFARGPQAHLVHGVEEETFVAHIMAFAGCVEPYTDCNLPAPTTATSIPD

| stability towards ALP (enzymatic hydrolysis, Pi release) [2] | SMILES | pKa2 (from 31P chemical shift vs pH, inflection point of sigmoidal fit) [1] | pKa3 (deprotonation of the amine) ([1]; 31P shift vs pH, 278 K) | pKa for the protonation on nitrogen [3] | pKa for the protonation on one phosphoryl oxygen [3] |
| --- | --- | --- | --- | --- | --- |
|  | CC(=O)N[C@@H](Cc1ccc(O)cc1)C(=O)N[C@@H](CCSCCP(=O)(O)O)C(=O)NCC(N)=O [8a] | 7.08±0.03 |  |  |  |
| dephosphorylation | CC(=O)N[C@@H](Cc1ccc(O)cc1)C(=O)N[C@@H](CCCCOP(=O)(O)O)C(=O)NCC(N)=O [8b] | 6.54±0.13 |  |  |  |
|  | CC(=O)N[C@@H](Cc1ccc(O)cc1)C(=O)N[C@@H](CCCCNP(=O)(O)O)C(=O)NCC(N)=O [8c, ^AcTyrpLysGly^CONH2] | 2.88±0.30 | 9.64±0.07 |  |  |
|  | CCCCNP(=O)(O)O [N‐(n‐butyl)phosphoramidate] |  |  | 9.9 | 2.9 |
